Experimental data from patent US9173871B2, “Oxazole and thiazole compounds as beta-catenin modulators and uses thereof” (New York University, priority 2008, dated 2015).

What was measured:
[1] = system: LNCaP-abl cells; assay: Flow cytometry DNA content (propidium iodide), LNCaP-abl; assay type: cell-based; conditions: 20 μM, 24 hr
Method: (§1) A) Cells were cultured in phenol-red free RPMI with either 5% charcoal-stripped FBS supplemented with 0.1 nM R1881 (LNCaP) or 10% charcoal-stripped FBS alone (LNCaP-abl). […] Neutral red uptake assay was performed at the end of treatment to estimate the number of viable cells. […] Fixed cells were stained with Propidium Iodide and analyzed for DNA content using flow cytometry. The first and the second red peak and the dashed area represent G0/G1, M and S-phase cell population, respectively.

[2] = system: LNCaP cells; assay: PARP cleavage immunoblot as marker of apoptosis, LNCaP; assay type: cell-based; conditions: 20 μM, 72 hr
[3] = system: Wnt/β-catenin STF-LUC reporter in LNCaP-abl cells; assay: β-catenin/Wnt-responsive STF16-LUC reporter with S37A β-catenin in LNCaP-abl cells; assay type: cell-based
Method: (§2) LNCaP or LNCaP-abl (ABL) cells were cotransfected with 0.1 μg β-galactosidase and 0.2 μg S37A stabilized β-catenin together with the indicated luciferase reporter constructs; STF16-LUC (β-catenin reporter) and LB1-LUC (AR reporter). […] Luciferase activity was normalized to β-galactosidase expression.
(§3) To determine the IC50 for the β-catenin/Wnt-responsive reporter, cells were cotransfected with β-galactosidase (LacZ) and a constitutively active S37A stabilized β-catenin mutant construct together with the reporter construct, STF16-LUC. To determine the IC50 for the AR-responsive construct, cells were cotransfected with LacZ and the AR responsive reporter construct, ARE-LUC. […] B) AR overexpression circumvents C3 repression of AR-responsive transcription. LNCaP cells were cotransfected with 0.1 μg LacZ and 0.2 μg of the AR responsive reporter construct, ARE-LUC, together with 0, 0.05, 0.1 and 0.2 μg of an AR expression vector. […] Luciferase activity was normalized to LacZ expression.
(§4) 108(15): 5954-63], it had not been determined in prostate cancer cells. […] 69(8): 3332-8].

[4] = system: LNCaP-abl cells; assay: Proliferation assay (neutral red uptake), LNCaP-abl; assay type: cell-based; conditions: 20 μM daily
Method: as §1

[5] = system: Wnt/β-catenin STF-LUC reporter in LNCaP; assay: β-catenin/Wnt-responsive STF16-LUC reporter with S37A β-catenin in LNCaP cells; assay type: cell-based
Method: as §2, §3, §4

[6] = system: LNCaP cells; assay: Proliferation assay (neutral red uptake), LNCaP; assay type: cell-based; conditions: 20 μM daily
Method: as §1

[7] = system: HEK 293 cells; assay: PARP cleavage immunoblot, HEK293; assay type: cell-based; conditions: HEK 293, 20 μM, 72 hr
[8] = Toxicity / maximum tolerated dose in mice; assay type: in vivo
Method: Importantly, given the role of the Wnt/β-catenin pathway as a regulator of intestinal stem cells [Korinek et al., Nat Genet, 1998. 19(4): 379-83; van de Wetering et al., Cell, 2002. […] Accordingly, mice were injected 5 days/week for 5 weeks at a range of concentrations between 50-125 mg/Kg and compared to vehicle-alone control. Toxicity was monitored by assessing mouse weight, blood counts and mortality. The MTD determination was performed at the fee-for-service, anti-tumor assessment facility at Memorial Sloan Kettering Cancer Center.

[9] = system: HEK 293 cells; assay: Neutral red uptake growth assay, HEK293; assay type: cell-based; conditions: HEK 293, higher levels of C3 (10 or 20 μM daily)
Method: Left panel; HEK293 cells were cultured in DMEM with 10% FBS. […] Neutral red uptake assay was performed at the end of treatment to estimate the number of viable cells.

[10] = system: AR and β-catenin target genes in LNCaP-abl cells; assay: Q-PCR time course of AR and β-catenin target genes in LNCaP-abl cells; assay type: cell-based; conditions: single dose at time 0, persists for 48 hours, FIG. 16A
Method: ABL cells were treated similarly, but cultured in 5% charcoal-stripped phenol-red free RPMI. The mRNA was extracted at each time point and relative levels of indicated genes were analyzed by Q-PCR and normalized to RPL19. B) Protein from LNCaP cells was analyzed at each time point and immunoblotted with indicated antibodies.
Expression of tubulin (included as an internal loading control) and β-catenin were unaffected.

[11] = system: LNCaP cells; assay: Flow cytometry DNA content (propidium iodide), LNCaP; assay type: cell-based; conditions: 20 μM, 24 hr
Method: as §1

[12] = system: LNCaP-abl cells; assay: PARP cleavage immunoblot as marker of apoptosis, LNCaP-abl; assay type: cell-based; conditions: 20 μM, 72 hr
[13] = target: Wnt/wg pathway, Wnt-responsive luciferase reporter dTF12; conditions: Gonsalves et al., PNAS 2011; read-out: IC50, β-catenin-responsive luciferase reporter (dTF12); cited from earlier work
[14] = system: membrane bound β-catenin; assay: Immunofluorescence of membrane β-catenin in androgen-deprived LNCaP cells; assay type: cell-based
Source text: An important objective in the initial screen for inhibitors of β-catenin responsive transcription (iCRT) was to isolate compounds that diminished the nuclear function of β-catenin without affecting β-catenin interaction with E-cadherin at the cell membrane.

[15] = 75 mg/Kg injected 5 days a week for 5 weeks

For `CCc1ccc(-c2nc(CSCC(=O)NCCc3ccccc3)c(C)o2)cc1` [Compound C3], the “cell cycle effect by flow cytometry” value [1] was “growth arrest of the cells in the G0/G1 phase”, the “PARP cleavage (apoptosis marker)” value [2] was “Increased levels of PARP cleavage” and the IC50 [3] was 890 nM. The “Wnt reporter gene activity (STF16-LUC)” value ([3]; 20 uM, 24 hr) was “inhibits”, the cell growth [4] was “completely abolished” and the IC50 [5] was 140 nM. The “Wnt reporter gene activity (STF16-LUC)” value ([5]; 20 uM, 24 hr) was “inhibits”, the cell growth [6] was “completely abolished” and the “apoptosis (PARP cleavage) in 293 cells” value [7] was “does not induce apoptosis”. For the same compound, the body weight [8, 15] was “did not lose weight”, the gut toxicity [8, 15] was “no gut toxicity” and the “histology of all major organs” value [8, 15] was “normal”. For the same compound, the “toxicity (overall)” value [8, 15] was “not toxic”, the toxicity ([8]; continuous injection of 20 mg/Kg by mini-pump for 5 weeks) was “no toxicity” and the 293 cell growth [9] was “somewhat slow”. The “AR, CDK1, UBE2C and c-myc mRNA” value [10] was “diminished”, the “cell cycle effect by flow cytometry” value [11] was “growth arrest of the cells in the G0/G1 phase” and the “PARP cleavage (apoptosis marker)” value [12] was “Increased levels of PARP cleavage”. The IC50 [13] was 8.2 nM and the “ability of β-catenin to interact with E-cadherin at the cell membrane” value [14] was “does not affect”.
